According to patent EP0366638A2, “Neuromodulatory peptide” (KabiGen AB, priority 1988, dated 1990):

How the values were obtained:
[1] = tested on: spinal cord; assay: electrophysiological reflex response in the spinal cord; format: in vivo
Text: The result of these experiments is shown in Fig. 3, from which it is clear that the tripeptide increases both the peak and the duration of the reflex response.

[2] = tested on: cortical neurones; assay: modulation of the electrophysiological activity of cortical neurones (microiontophoresis and pressure ejection procedure); details: Fig. 2
Text: The tripeptide from Example 1 above was used in modulation of the electrophysiological activity of cortical neurones, and the results of this experiment is illustrated in Fig. 2. […] In this experiment the procedure according to T.W. Stone (Ed.), "Microiontophonesis and pressure ejection", John Wiley & Sons, New York, 1985 was used.

[3] = tested on: cortical brain slices; assay: release of acetylcholine from cortical brain slices; format: cell-based; details: following depolarization, Fig. 1
Text: The tripeptide resulting from the manufacture according to Example 1 above was used in a test system according to L. Nilsson, V.R. Sara and A. Nordberg, Neurosience Letters, 1988, Vol. 88, pp 221-226. This test procedure is based on stimulation of the release of acetylcholine from cortical brain slices.

## NCC(=O)N1CCC[C@H]1C(=O)N[C@@H](CCC(=O)O)C(=O)O [tripeptide, glycylprolylglutamic acid]
[1]; Fig. 3
  duration of the reflex response: increases
  peak of the reflex response: increases
[1]; in vivo
  electrophysiological reflex response in the spinal cord: facilitate
[2]; cortical neurones
  neural response to neurotransmitters: modulates
[2]; electrophysiological activity
  cortical neurone activity: both stimulates and inhibits
[3]
  release of acetylcholine from neurones: inhance the release of acetylcholine
